# pKi: −log10 of the molar value.
# Biological target: T1, ATR kinase (Homo sapiens, UniProt Q13535)
# T1 construct: Assays were carried out at 25° C. in the presence of 5 nM full-length ATR
# Experiment: ATR Inhibition Assay (radioactive-phosphate incorporation)
# Format: biochemical
# Protocol: Compounds were screened for their ability to inhibit ATR kinase using a radioactive-phosphate incorporation assay. Assays were carried out in a mixture of 50 mM Tris/HCl (pH 7.5), 10 mM MgCl2 and 1 mM DTT. Final substrate concentrations were 10 μM [γ-33P]ATP (3mCi 33P ATP/mmol ATP, Perkin Elmer) and 800 μM target peptide ([…] (SEQ. ID NO: 1)).
# Assays were carried out at 25° C. in the presence of 5 nM full-length ATR. An assay stock buffer solution was prepared containing all of the reagents listed above, with the exception of ATP and the test compound of interest. 13.5 μL of the stock solution was placed in a 96 well plate followed by addition of 2 μL of DMSO stock containing serial dilutions of the test compound (typically starting from a final concentration of 15 μM with 3-fold serial dilutions) in duplicate (final DMSO concentration 7%). The plate was pre-incubated for 10 minutes at 25° C. and the reaction initiated by addition of 15 μL [γ-33P]ATP (final concentration 10 μM).
# The reaction was stopped after […] by the addition of 30 μL 0.1M phosphoric acid containing 2 mM ATP. A multiscreen phosphocellulose filter 96-well plate (Millipore, Cat no. MAPHN0B50) was pretreated with 100 μL 0.2M phosphoric acid prior to the addition of 45 μL of the stopped assay mixture. The plate was washed with 5×200 μL 0.2M phosphoric acid. After drying, 100 μL Optiphase ‘SuperMix’ liquid scintillation cocktail (Perkin Elmer) was added to the well prior to scintillation counting (1450 Microbeta Liquid Scintillation Counter, Wallac).
# After removing mean background values for all of the data points, Ki(app) data were calculated from non-linear regression analysis of the initial rate data using the Prism software package (GraphPad Prism version 3.0cx for Macintosh, GraphPad Software, San Diego Calif., USA).
# T1 sequence (Q13535 whole entry): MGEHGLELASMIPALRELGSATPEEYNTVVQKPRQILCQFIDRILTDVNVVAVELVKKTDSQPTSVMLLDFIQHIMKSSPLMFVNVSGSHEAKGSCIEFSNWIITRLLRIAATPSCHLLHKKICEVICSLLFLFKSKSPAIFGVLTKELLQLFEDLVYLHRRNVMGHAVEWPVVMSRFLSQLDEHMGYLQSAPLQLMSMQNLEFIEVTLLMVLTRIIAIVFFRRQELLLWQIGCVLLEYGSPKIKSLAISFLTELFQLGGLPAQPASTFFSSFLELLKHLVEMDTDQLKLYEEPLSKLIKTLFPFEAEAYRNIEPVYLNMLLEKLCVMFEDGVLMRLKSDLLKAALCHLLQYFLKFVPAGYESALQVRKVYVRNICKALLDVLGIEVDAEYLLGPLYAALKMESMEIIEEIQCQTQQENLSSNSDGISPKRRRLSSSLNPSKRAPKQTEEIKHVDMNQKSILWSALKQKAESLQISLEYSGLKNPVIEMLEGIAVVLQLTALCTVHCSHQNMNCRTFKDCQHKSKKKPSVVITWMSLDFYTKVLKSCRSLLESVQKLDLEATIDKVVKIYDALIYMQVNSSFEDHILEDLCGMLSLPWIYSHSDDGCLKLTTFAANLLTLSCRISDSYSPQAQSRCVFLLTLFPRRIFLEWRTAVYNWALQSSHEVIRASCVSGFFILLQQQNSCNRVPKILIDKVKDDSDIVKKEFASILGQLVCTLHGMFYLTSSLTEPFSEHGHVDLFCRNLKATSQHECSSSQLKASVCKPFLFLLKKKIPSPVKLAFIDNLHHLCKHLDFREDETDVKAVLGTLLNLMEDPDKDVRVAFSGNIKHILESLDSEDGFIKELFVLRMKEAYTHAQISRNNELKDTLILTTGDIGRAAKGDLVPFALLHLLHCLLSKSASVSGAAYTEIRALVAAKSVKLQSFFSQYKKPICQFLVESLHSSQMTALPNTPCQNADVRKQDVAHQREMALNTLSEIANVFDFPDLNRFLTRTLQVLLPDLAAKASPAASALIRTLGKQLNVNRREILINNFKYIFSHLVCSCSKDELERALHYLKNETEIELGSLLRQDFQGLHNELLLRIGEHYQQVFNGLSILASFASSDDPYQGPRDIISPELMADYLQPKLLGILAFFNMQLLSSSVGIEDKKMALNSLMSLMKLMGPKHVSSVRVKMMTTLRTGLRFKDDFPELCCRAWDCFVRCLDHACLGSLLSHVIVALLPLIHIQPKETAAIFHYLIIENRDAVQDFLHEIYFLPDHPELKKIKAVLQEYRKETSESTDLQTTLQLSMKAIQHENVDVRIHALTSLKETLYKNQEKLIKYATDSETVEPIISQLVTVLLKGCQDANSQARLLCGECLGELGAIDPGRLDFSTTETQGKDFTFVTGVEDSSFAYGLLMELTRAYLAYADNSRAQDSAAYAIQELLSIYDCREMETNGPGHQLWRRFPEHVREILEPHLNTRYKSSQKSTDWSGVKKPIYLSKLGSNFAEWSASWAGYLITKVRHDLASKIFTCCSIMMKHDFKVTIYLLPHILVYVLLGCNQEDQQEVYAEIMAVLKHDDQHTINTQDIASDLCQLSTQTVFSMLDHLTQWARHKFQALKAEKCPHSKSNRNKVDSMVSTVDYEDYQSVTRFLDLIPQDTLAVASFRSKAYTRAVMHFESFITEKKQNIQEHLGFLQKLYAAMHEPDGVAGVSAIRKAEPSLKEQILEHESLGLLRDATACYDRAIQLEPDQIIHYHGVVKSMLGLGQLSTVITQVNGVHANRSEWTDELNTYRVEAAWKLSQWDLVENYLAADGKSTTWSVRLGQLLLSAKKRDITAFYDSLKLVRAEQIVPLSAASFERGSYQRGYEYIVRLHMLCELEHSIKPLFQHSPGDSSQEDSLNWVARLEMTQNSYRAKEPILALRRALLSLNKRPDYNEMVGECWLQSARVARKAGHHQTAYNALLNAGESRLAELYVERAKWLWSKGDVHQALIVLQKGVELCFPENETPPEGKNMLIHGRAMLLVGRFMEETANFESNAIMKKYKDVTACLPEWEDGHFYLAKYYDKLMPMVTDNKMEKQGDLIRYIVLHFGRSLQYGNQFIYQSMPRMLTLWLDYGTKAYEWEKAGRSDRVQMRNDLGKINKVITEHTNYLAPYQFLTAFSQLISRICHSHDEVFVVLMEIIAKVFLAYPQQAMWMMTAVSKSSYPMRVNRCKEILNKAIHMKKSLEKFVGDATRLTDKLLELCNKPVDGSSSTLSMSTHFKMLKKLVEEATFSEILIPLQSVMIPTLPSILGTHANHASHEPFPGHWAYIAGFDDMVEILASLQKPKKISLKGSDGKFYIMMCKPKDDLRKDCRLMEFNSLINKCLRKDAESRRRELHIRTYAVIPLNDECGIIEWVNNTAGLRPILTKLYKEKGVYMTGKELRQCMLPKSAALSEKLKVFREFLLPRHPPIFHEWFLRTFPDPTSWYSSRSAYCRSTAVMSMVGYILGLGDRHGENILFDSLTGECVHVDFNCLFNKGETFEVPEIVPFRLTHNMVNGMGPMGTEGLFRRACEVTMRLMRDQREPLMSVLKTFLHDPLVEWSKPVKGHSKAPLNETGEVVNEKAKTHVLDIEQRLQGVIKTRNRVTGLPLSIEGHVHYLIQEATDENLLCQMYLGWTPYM
row,SMILES,pKi
1,"CC(C)S(=O)(=O)c1ccc(-c2cnc(N)c(C#C[C@@H](C)O)n2)cc1 [Compound I-4, (2R)-4-[3-Amino-6-(4-isopropylsulfonylphenyl)pyrazin-2-yl]but-3-yn-2-ol]",6.00 to 7.00
2,"C#Cc1nc(-c2ccc(S(=O)(=O)C(C)C)cc2)cnc1N [Compound I-5, 3-Ethynyl-5-(4-isopropylsulfonylphenyl)pyrazin-2-amine]",6.00 to 7.00
3,"CC(C)S(=O)(=O)c1ccc(-c2cnc(N)c(C#CC3CCCCC3)n2)cc1 [Compound I-8, 3-(2-Cyclohexylethynyl)-5-(4-isopropylsulfonylphenyl)pyrazin-2-amine]",6.00 to 7.00
4,"CC(C)S(=O)(=O)c1ccc(-c2cnc(N)c(C#CCc3ccccc3)n2)cc1 [Compound I-10, 5-(4-isopropylsulfonylphenyl)-3-(3-phenylprop-1-ynyl)pyrazin-2-amine]",4.89 to 6.00
5,"CC(C)S(=O)(=O)c1ccc(-c2cnc(N)c(C#Cc3ccc(C#N)cc3)n2)cc1 [Compound I-15, 4-[2-[3-Amino-6-(4-isopropylsulfonylphenyl)pyrazin-2-yl]ethynyl]benzonitrile]",4.89 to 6.00
6,"COc1ccccc1C#Cc1nc(-c2ccc(S(=O)(=O)C(C)C)cc2)cnc1N [Compound I-19, 5-(4-Isopropylsulfonylphenyl)-3-[2-(2-methoxyphenyl)ethynyl]pyrazin-2-amine]",6.00 to 7.00
7,"CC(C)S(=O)(=O)c1ccc(-c2cnc(N)c(C#Cc3cccc(OCCN(C)C)c3)n2)cc1 [Compound I-26, 3-[2-[3-(2-Dimethylaminoethyloxy)phenyl]ethynyl]-5-(4-isopropylsulfonylphenyl)pyrazin-2-amine]",6.00 to 7.00
8,"CC(C)S(=O)(=O)c1ccc(-c2cnc(N)c(C#CC3CC3)n2)cc1 [Compound I-27, 3-(2-Cyclopropylethynyl)-5-(4-isopropylsulfonylphenyl)pyrazin-2-amine]",6.00 to 7.00
9,"CC(C)S(=O)(=O)c1ccc(-c2cnc(N)c(C#C[C@H](C)O)n2)cc1 [Compound I-29, (2S)-4-[3-Amino-6-(4-isopropylsulfonylphenyl)pyrazin-2-yl]but-3-yn-2-ol]",4.89 to 6.00
10,"CC(C)S(=O)(=O)c1ccc(-c2cnc(N)c(C#Cc3ccsc3)n2)cc1 [Compound I-31, 5-(4-Isopropylsulfonylphenyl)-3-[2-(3-thienyl)ethynyl]pyrazin-2-amine]",6.00 to 7.00
11,"CC(C)S(=O)(=O)c1ccc(-c2cnc(N)c(C#Cc3cccc(OCCN4CCOCC4)c3)n2)cc1 [Compound I-36, 5-(4-Isopropylsulfonylphenyl)-3-[2-[3-(2-morpholinoethoxy)phenyl]ethynyl]pyrazin-2-amine]",6.00 to 7.00
12,"CC(C)S(=O)(=O)c1ccc(-c2cnc(N)c(C#Cc3ccccc3N)n2)cc1 [Compound I-38, 3-((2-aminophenyl)ethynyl)-5-(4-(isopropylsulfonyl)phenyl)pyrazin-2-amine]",6.00 to 7.00
13,CC(C)S(=O)(=O)c1ccc(-c2cnc(N)c(C#Cc3cncn3C)n2)cc1 [Compound I-39],≥ 7.00
14,"CC(C)S(=O)(=O)c1ccc(-c2cnc(N)c(C#Cc3cccc(N)n3)n2)cc1 [Compound I-41, 3-((6-aminopyridin-2-yl)ethynyl)-5-(4-(isopropylsulfonyl)phenyl)pyrazin-2-amine]",≥ 7.00
15,"CC(C)S(=O)(=O)c1ccc(-c2cnc(N)c(C#Cc3ccc(C(O)CN)cc3)n2)cc1 (stereo not shown) [Compound I-42, 2-amino-1-(4-((3-amino-6-(4-(isopropylsulfonyl)phenyl)pyrazin-2-yl)ethynyl)phenyl)ethanol]",≥ 7.00
16,"CC(C)S(=O)(=O)c1ccc(-c2cnc(N)c(C#Cc3ccccc3N3CCNCC3)n2)cc1 [Compound I-43, 5-(4-(isopropylsulfonyl)phenyl)-3-((2-(piperazin-1-yl)phenyl)ethynyl)pyrazin-2-amine]",≥ 7.00
17,"CC(C)S(=O)(=O)c1ccc(-c2cnc(N)c(C#Cc3cccc4[nH]ncc34)n2)cc1 [Compound I-44, 3-((1H-indazol-4-yl)ethynyl)-5-(4-(isopropylsulfonyl)phenyl)pyrazin-2-amine]",≥ 7.00

# Other lines, results leading:
row,pKi,SMILES
1,≥ 7.00,"CC(C)S(=O)(=O)c1ccc(-c2cnc(N)c(C#Cc3cccc(F)c3)n2)cc1 [Compound I-1, 3-[2-(3-Fluorophenyl)ethynyl]-5-(4-isopropylsulfonylphenyl)pyrazin-2-amine]"
2,≥ 7.00,"CC(C)S(=O)(=O)c1ccc(-c2cnc(N)c(C#Cc3cccc4ccccc34)n2)cc1 [Compound I-2, 5-(4-Isopropylsulfonylphenyl)-3-[2-(1-naphthyl)ethynyl]pyrazin-2-amine]"
3,≥ 7.00,"COc1cccc(C#Cc2nc(-c3ccc(S(=O)(=O)C(C)C)cc3)cnc2N)c1 [Compound I-3, 5-(4-Isopropylsulfonylphenyl)-3-[2-(3-methoxyphenyl)ethynyl]pyrazin-2-amine]"
4,≥ 7.00,"CC(=O)Nc1cccc(C#Cc2nc(-c3ccc(S(=O)(=O)C(C)C)cc3)cnc2N)c1 [Compound I-6, N-[3-[2-[3-Amino-6-(4-isopropylsulfonylphenyl)pyrazin-2-yl]ethynyl]phenyl]acetamide]"
5,≥ 7.00,"CC(C)S(=O)(=O)c1ccc(-c2cnc(N)c(C#Cc3cccc(Cl)c3)n2)cc1 [Compound I-9, 3-[2-(3-Chlorophenyl)ethynyl]-5-(4-isopropylsulfonylphenyl)pyrazin-2-amine]"
6,≥ 7.00,"Cc1cccc(C#Cc2nc(-c3ccc(S(=O)(=O)C(C)C)cc3)cnc2N)c1 [Compound I-11, 5-(4-Isopropylsulfonylphenyl)-3-[2-(m-tolyl)ethynyl]pyrazin-2-amine]"
7,≥ 7.00,"CC(C)S(=O)(=O)c1ccc(-c2cnc(N)c(C#Cc3ccccc3Cl)n2)cc1 [Compound I-12, 3-[2-(2-Chlorophenyl)ethynyl]-5-(4-isopropylsulfonylphenyl)pyrazin-2-amine]"
8,≥ 7.00,"CC(C)S(=O)(=O)c1ccc(-c2cnc(N)c(C#Cc3cccnc3)n2)cc1 [Compound I-13, 5-(4-Isopropylsulfonylphenyl)-3-[2-(3-pyridyl)ethynyl]pyrazin-2-amine]"
9,≥ 7.00,"CC(C)S(=O)(=O)c1ccc(-c2cnc(N)c(C#Cc3ccc(F)cc3)n2)cc1 [Compound I-14, 3-[2-(4-Fluorophenyl)ethynyl]-5-(4-isopropylsulfonylphenyl)pyrazin-2-amine]"
10,≥ 7.00,"CC(C)n1cc(-c2cnc(N)c(C#Cc3cccc(O)c3)n2)ccc1=O [Compound I-16, 5-[5-Amino-6-[2-(3-hydroxyphenyl)ethynyl]pyrazin-2-yl]-1-isopropyl-pyridin-2-one]"
11,≥ 7.00,"Nc1ncc(-c2ccc(S(=O)(=O)C3CCNCC3)cc2)nc1C#Cc1cccc(O)c1 [Compound I-17, 3-[2-[3-Amino-6-[4-(4-piperidylsulfonyl)phenyl]pyrazin-2-yl]ethynyl]phenol]"
12,≥ 7.00,"N#Cc1ccccc1-c1cnc(N)c(C#Cc2cccc(O)c2)n1 [Compound I-18, 2-[5-Amino-6-[2-(3-hydroxyphenyl)ethynyl]pyrazin-2-yl]benzonitrile]"
13,≥ 7.00,"CC(C)S(=O)(=O)c1ccc(-c2cnc(N)c(C#Cc3cccc(OCCCN(C)C)c3)n2)cc1 [Compound I-20, 3-[2-[3-[3-(Dimethylamino)propoxy]phenyl]ethynyl]-5-(4-isopropylsulfonylphenyl)pyrazin-2-amine]"
14,≥ 7.00,"C[S+]([O-])c1ccccc1-c1cnc(N)c(C#Cc2cccc(O)c2)n1 (stereo not shown) [Compound I-23, 3-[2-[3-Amino-6-(2-methylsulfinylphenyl)pyrazin-2-yl]ethynyl]phenol]"
15,≥ 7.00,"CC(C)S(=O)(=O)c1ccc(-c2cnc(N)c(C#Cc3cccc(OCCCN)c3)n2)cc1 [Compound I-24, 3-[2-[3-(3-Aminopropoxy)phenyl]ethynyl]-5-(4-isopropylsulfonylphenyl)pyrazin-2-amine]"
16,≥ 7.00,"CC(C)S(=O)(=O)c1ccc(-c2cnc(N)c(C#Cc3cccc(OCCN)c3)n2)cc1 [Compound I-25, 3-[2-[3-(2-Aminoethoxy)phenyl]ethynyl]-5-(4-isopropylsulfonylphenyl)pyrazin-2-amine]"
17,≥ 7.00,"CNCc1cccc(C#Cc2nc(-c3ccc(S(=O)(=O)C(C)C)cc3)cnc2N)c1 [Compound I-28, 5-(4-Isopropylsulfonylphenyl)-3-[2-[3-(methylaminomethyl)phenyl]ethynyl]pyrazin-2-amine]"
18,≥ 7.00,"CCC(=O)N1CC=C(c2cnc(N)c(C#Cc3cccc(O)c3)n2)CC1 [Compound I-30, 1-[4-[5-Amino-6-[2-(3-hydroxyphenyl)ethynyl]pyrazin-2-yl]-3,6-dihydro-2H-pyridin-1-yl]propan-1-one]"
19,≥ 7.00,"CC(C)S(=O)(=O)c1ccc(-c2cnc(N)c(C#Cc3ccncc3)n2)cc1 [Compound I-32, 5-(4-Isopropylsulfonylphenyl)-3-[2-(4-pyridyl)ethynyl]pyrazin-2-amine]"
20,≥ 7.00,"CC(C)S(=O)(=O)c1ccc(-c2cnc(N)c(C#Cc3cccc(C(N)=O)c3)n2)cc1 [Compound I-37, 3-[2-[3-Amino-6-(4-isopropylsulfonylphenyl)pyrazin-2-yl]ethynyl]benzamide]"
